Experimental data taken from patent US8017612B2, “Piperazine compound and use thereof as a HCV polymerase inhibitor” (priority 2006, dated 2011).

What was measured:
[1] = molecular target: T1, HCV polymerase (NS5B) type 1b (Hepatitis C virus genotype 1b, UniProt P26663); assay: Assay of enzyme (HCV polymerase) inhibitory activity, type 1b enzyme; assay type: biochemical, HCV BK strain (type 1b); details: HCV polymerase inhibitory activity (IC50), 1b, type 1b enzyme 0.5 μg/ml, 25° C., 60 min
T1 construct: a region encoding NS5B (J Virol 1991 March, 65(3), 1105-13, 544 amino acids after deletion of 47 amino acids on the C-terminal); 6xHis (C); made in house; host or cells: Escherichia coli
How it was run: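 NS5B from HCV BK strain (type 1b), C-terminal 47 aa deleted, C-terminal His6-tagged, E. coli-expressed, 0.5 μg/ml, with ~450 nt substrate RNA carrying the 3′ UTR (polyU, 3′X) at 5 μg/ml. Incubation 60 min at 25 °C with 50 μM ATP/GTP/CTP, 2 μM UTP plus [3H]UTP, pH 7.5 Tris.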

[2] = molecular target: T2, HCV polymerase (NS5B) type 1a (Hepatitis C virus genotype 1a, UniProt P26664); assay: Assay of enzyme (HCV polymerase) inhibitory activity, type 1a enzyme; assay type: biochemical, HCV type 1a (cloned from the blood of patients); details: HCV polymerase inhibitory activity (IC50), 1a, type 1a enzyme 1.5 μg/ml, 25° C., 60 min
T2 construct: made in house; host or cells: Escherichia coli (by the 'similar method' of the 1b enzyme)
How it was run: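 Patient-derived type 1a NS5B (C-terminal 47-aa deletion, His-tagged, E. coli-expressed) at 1.5 μg/ml was reacted with 5 μg/ml 3′UTR-containing substrate RNA, 50 μM ATP/GTP/CTP, 2 μM UTP plus [3H]UTP, pH 7.5, 25° C for 60 min. TCA-precipitated RNA radioactivity was counted; IC50 from ± compound.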

SMILES | IC50 [1] [nM] | IC50 [2] [nM]
CCOc1ccc(CNC(=O)[C@H]2CN(c3nc(C)c(C(=O)O)s3)CCN2S(=O)(=O)c2ccc(OC(F)(F)F)cc2)cc1 [Example 442, 2-[(R)-3-(4-ethoxy-benzylcarbamoyl)-4-(4-trifluoromethoxy-benzenesulfonyl)-piperazin-1-yl]-4-methyl-thiazole-5-carboxylic acid] | < 100 | 100 to 1000
CC(C)c1ccc(CNC(=O)[C@H]2CN(c3cnc(C(=O)O)c(N)n3)CCN2S(=O)(=O)c2ccc(C(F)(F)F)cc2)cc1 [Example 443, (R)-6′-amino-3-(4-isopropyl-benzylcarbamoyl)-4-(4-trifluoromethyl-benzenesulfonyl)-3,4,5,6-tetrahydro-2H-[1,2′]bipyrazinyl-5′-carboxylic acid] | < 100 | 100 to 1000
CCCc1ccc(CNC(=O)[C@H]2CN(c3nc(C(F)(F)F)c(C(=O)OCC)s3)CCN2S(=O)(=O)c2ccc(OC(F)(F)F)cc2)cc1 [Example 444, 2-[(R)-3-(4-propyl-benzylcarbamoyl)-4-(4-trifluoromethoxy-benzenesulfonyl)-piperazin-1-yl]-4-trifluoromethyl-thiazole-5-carboxylic acid ethyl ester] | 100 to 1000 | 100 to 1000
CC(C)c1ccc(CNC(=O)[C@H]2CN(c3cc(C(=O)O)n(C)n3)CCN2S(=O)(=O)c2ccc(C(F)(F)F)cc2)cc1 [Example 445, 5-[(R)-3-(4-isopropyl-benzylcarbamoyl)-4-(4-trifluoromethyl-benzenesulfonyl)-piperazin-1-yl]-2-methyl-2H-pyrazole-3-carboxylic acid] | < 100 | 100 to 1000
Cc1nc(N2CCN(S(=O)(=O)c3ccc(C(F)(F)F)cc3)[C@@H](C(=O)NCc3ccc(C(C)C)cc3)C2)sc1C(=O)NS(C)(=O)=O [Example 446, (R)-4-(5-methanesulfonylaminocarbonyl-4-methyl-thiazol-2-yl)-1-(4-trifluoromethyl-benzenesulfonyl)-piperazine-2-carboxylic acid 4-isopropyl-benzylamide] | < 100 | 100 to 1000
CCCc1ccc(CNC(=O)[C@H]2CN(c3nc(C)c(C(=O)NS(C)(=O)=O)s3)CCN2S(=O)(=O)c2ccc(OC(F)(F)F)cc2)cc1 [Example 447, (R)-4-(5-methanesulfonylaminocarbonyl-4-methyl-thiazol-2-yl)-1-(4-trifluoromethoxy-benzenesulfonyl)-piperazine-2-carboxylic acid 4-propyl-benzylamide] | < 100 | 100 to 1000
CCC(F)(F)c1ccc(CNC(=O)[C@H]2CN(c3nc(C)c(C(=O)O)s3)CCN2S(=O)(=O)c2ccc(OC(F)(F)F)cc2)cc1 [Example 448, 2-[(R)-3-[4-(1,1-difluoro-propyl)-benzylcarbamoyl]-4-(4-trifluoromethoxy-benzenesulfonyl)-piperazin-1-yl]-4-methyl-thiazole-5-carboxylic acid] | < 100 | < 100
CCCc1ccc(CNC(=O)[C@H]2CN(c3cnc(C(=O)O)c(C)n3)CCN2S(=O)(=O)c2ccc(OC(F)(F)F)cc2)cc1 [Example 449, (R)-6′-methyl-3-(4-propyl-benzylcarbamoyl)-4-(4-trifluoromethoxy-benzenesulfonyl)-3,4,5,6-tetrahydro-2H-[1,2′]bipyrazinyl-5′-carboxylic acid] | < 100 | < 100
CCCc1ccc(CNC(=O)[C@H]2CN(C(C)=O)CCN2S(=O)(=O)c2ccc(OC(F)(F)F)cc2)cc1 [Example 450, (R)-4-acetyl-1-(4-trifluoromethoxy-benzenesulfonyl)-piperazine-2-carboxylic acid 4-propyl-benzylamide] | < 100 | < 100
COCc1ccc(CNC(=O)[C@H]2CN(c3nc(C)c(C(=O)O)s3)CCN2S(=O)(=O)c2ccc(OC(F)(F)F)cc2)cc1 [Example 451, 2-[(R)-3-(4-methoxymethyl-benzylcarbamoyl)-4-(4-trifluoromethoxy-benzenesulfonyl)-piperazin-1-yl]-4-methyl-thiazole-5-carboxylic acid] | < 100 | < 100
CCCc1ccc(CNC(=O)[C@H]2CN(c3nc(C)c(CO)s3)CCN2S(=O)(=O)c2ccc(OC(F)(F)F)cc2)cc1 [Example 452, (R)-4-(5-hydroxymethyl-4-methyl-thiazol-2-yl)-1-(4-trifluoromethoxy-benzenesulfonyl)-piperazine-2-carboxylic acid 4-propyl-benzylamide] | < 100 | < 100
CCCc1ccc(CNC(=O)[C@H]2CN(c3nc(C(F)(F)F)c(C(=O)O)s3)CCN2S(=O)(=O)c2ccc(OC(F)(F)F)cc2)cc1 [Example 453, 2-[(R)-3-(4-propyl-benzylcarbamoyl)-4-(4-trifluoromethoxy-benzenesulfonyl)-piperazin-1-yl]-4-trifluoromethyl-thiazole-5-carboxylic acid] | < 100 | < 100
CCCc1ccc(CNC(=O)[C@H]2CN(c3cc(C)c(O)nn3)CCN2S(=O)(=O)c2ccc(OC(F)(F)F)cc2)cc1 [Example 454, (R)-4-(6-hydroxy-5-methyl-pyridazin-3-yl)-1-(4-trifluoromethoxy-benzenesulfonyl)-piperazine-2-carboxylic acid 4-propyl-benzylamide] | < 100 | < 100
CCCc1ccc(CNC(=O)[C@H]2CN(C(=O)Cn3nnc(CC(=O)OCC)n3)CCN2S(=O)(=O)c2ccc(OC(F)(F)F)cc2)cc1 [Example 455, (2-{2-oxo-2-[(R)-3-(4-propyl-benzylcarbamoyl)-4-(4-trifluoromethoxy-benzenesulfonyl)-piperazin-1-yl]-ethyl}-2H-tetrazol-5-yl)-acetic acid ethyl ester] | < 100 | < 100
CCCc1ccc(CNC(=O)[C@H]2CN(C(=O)Cn3nnnc3C)CCN2S(=O)(=O)c2ccc(OC(F)(F)F)cc2)cc1 [Example 456, (R)-4-[2-(5-methyl-tetrazol-1-yl)-acetyl]-1-(4-trifluoromethoxy-benzenesulfonyl)-piperazine-2-carboxylic acid 4-propyl-benzylamide] | < 100 | < 100
CCCc1ccc(CNC(=O)[C@H]2CN(C(=O)Cn3nnc(C)n3)CCN2S(=O)(=O)c2ccc(OC(F)(F)F)cc2)cc1 [Example 457, (R)-4-[2-(5-methyl-tetrazol-2-yl)-acetyl]-1-(4-trifluoromethoxy-benzenesulfonyl)-piperazine-2-carboxylic acid 4-propyl-benzylamide] | < 100 | < 100
CCCc1ccc(CNC(=O)[C@H]2CN(c3ccc(N)cn3)CCN2S(=O)(=O)c2ccc(OC(F)(F)F)cc2)cc1 [Example 458, (R)-4-(5-amino-pyridin-2-yl)-1-(4-trifluoromethoxy-benzenesulfonyl)-piperazine-2-carboxylic acid 4-propyl-benzylamide] | < 100 | < 100
CCC(F)(F)c1ccc(CNC(=O)[C@H]2CN(C(C)=O)CCN2S(=O)(=O)c2ccc(OC(F)(F)F)cc2)cc1 [Example 459, (R)-4-acetyl-1-(4-trifluoromethoxy-benzenesulfonyl)-piperazine-2-carboxylic acid 4-(1,1-difluoro-propyl)-benzylamide] | < 100 | < 100
CCCc1ccc(CNC(=O)[C@H]2CN(C(=O)Cn3ncnn3)CCN2S(=O)(=O)c2ccc(OC(F)(F)F)cc2)cc1 [Example 460, (R)-4-(2-tetrazol-2-yl-acetyl)-1-(4-trifluoromethoxy-benzenesulfonyl)-piperazine-2-carboxylic acid 4-propyl-benzylamide] | < 100 | < 100
CCCc1ccc(CNC(=O)[C@H]2CN(C(=O)Cn3cnnn3)CCN2S(=O)(=O)c2ccc(OC(F)(F)F)cc2)cc1 [Example 461, (R)-4-(2-tetrazol-1-yl-acetyl)-1-(4-trifluoromethoxy-benzenesulfonyl)-piperazine-2-carboxylic acid 4-propyl-benzylamide] | < 100 | < 100
CCCc1ccc(CNC(=O)[C@H]2CN(C(=O)Cn3ccnc3)CCN2S(=O)(=O)c2ccc(OC(F)(F)F)cc2)cc1 [Example 462, (R)-4-(2-imidazol-1-yl-acetyl)-1-(4-trifluoromethoxy-benzenesulfonyl)-piperazine-2-carboxylic acid 4-propyl-benzylamide] | < 100 | < 100
CCCc1ccc(CNC(=O)[C@H]2CN(C(=O)N(C)c3ccncc3)CCN2S(=O)(=O)c2ccc(OC(F)(F)F)cc2)cc1 [Example 463, (R)-4-(4-trifluoromethoxy-benzenesulfonyl)-piperazine-1,3-dicarboxylic acid 1-(methyl-pyridin-4-yl-amide) 3-(4-propyl-benzylamide)] | > 1000 | > 1000
CCC(F)(F)c1ccc(CNC(=O)[C@H]2CN(C(=O)Cn3cnnn3)CCN2S(=O)(=O)c2ccc(OC(F)(F)F)cc2)cc1 [Example 464, (R)-4-(2-tetrazol-1-yl-acetyl)-1-(4-trifluoromethoxy-benzenesulfonyl)-piperazine-2-carboxylic acid 4-(1,1-difluoro-propyl)-benzylamide] | < 100 | < 100
